Laboratory results reported in patent publication US6140362A, “Method for inhibiting the growth of mammalian cells” (Rohm and Haas Company, priority 1997, dated 2000).

Tests used:
[1] = tested on: mouse lymphoma cell line L5178Y; test: Growth inhibition of mouse lymphoma cells (L5178Y), 48 h; format: cell-based; conditions: 48 hours; for inhibition at 20 µM: 20 micromolar; for inhibition at 50 µM: 50 micromolar; for inhibition at 2 µM: 2 micromolar; for inhibition at 4 µM: 4 micromolar; for inhibition at 10 µM: 10 micromolar, read-out: Inhibition of growth
Description: Effects of compounds on growth of mouse lymphoma cell line L5178Y, were determined as follows. Cells were grown in Fischer's medium (obtained from Life Technologies, Inc., Gaithersburg, Md.) containing 0.24 grams per liter (g/l) sodium pyruvate, 1.12 g/l surfactant (Pluronic F-68, from BASF Corporation, Parsippany, N.J.), and 10% by volume (10% v/v) heat-inactivated horse serum (obtained from Life Technologies, Inc) at 37° C. To 30 ml aliquots of cell suspension (2×10^4 cells per milliliter (mL)) in exponential growth phase were added test compounds dissolved in dimethylsulfoxide (DMSO) at various concentrations such that the final DMSO concentration in the mixtures was 0.25%. Tubes were gassed with 5% CO2 then incubated on a roller drum apparatus. After 48 hours the cells were treated with 0.1% trypsin (Life Technologies, Inc.,) for 10 minutes and counted in a Coulter Counter equipped with a 140 micrometer (μM) aperture. Percent inhibition of growth was calculated by comparing the number of cells in assays containing test compound with the number of cells in controls lacking the test compound.

tubulin = test: Inhibition of microtubule assembly; format: biochemical, calf; conditions: preincubated 1 h at 37° C.
Description: Compounds were evaluated for their ability to inhibit tubulin assembly into microtubules by comparing the extent of cold-reversible assembly in the presence of each test compound with controls lacking the test compound. Tubulin was isolated from calf brain tissue by two cycles of assembly/disassembly as described by Vallee, R. B. in Methods in Enzymology, vol. 134, pp. 89-104. Assay mixtures contained 1 mg/ml of purified tubulin in 1 M sodium glutamate, pH 6.6, 1 millimolar (mM) MgCl2, and the test compound, which was added as a solution in DMSO. The final concentration of DMSO in each assay was 2% (v/v). Assay mixtures were preincubated at 37° C. for 1 h, then chilled on ice for 5 min. Microtubule assembly was initiated by addition of guanosine triphosphate (0.1 mM), and incubation at 37° C. Assembly was followed turbidimetrically at 350 nm for 20 minutes (min) using a temperature-controlled cell in a Cary 2200 spectrophotometer. Since microtubules undergo depolymerization at 0° C., assembly was confirmed by measuring the reduction in turbidity following incubation for 30 min at 0° C. The difference in absorbance before and after incubation for 30 min at 0° C. (ΔA350) represents the extent of microtubule assembly. Inhibition of assembly was calculated by subtracting the (ΔA350) values for treatments with test compounds from the (ΔA350) for controls without test compound, and expressing this difference as a percentage of the (ΔA350) value for the control. Results including test compound number, test compound concentration in micromoles per liter (μM) and percent inhibition are set forth in Table 11.

Structure (SMILES): CCC(C)(NC(=O)c1cc(F)cc(F)c1)C(=O)CCl (stereo not drawn) [Compound 34]
- inhibition at 20 µM [1]: 88%

Structure (SMILES): CCC(C)(NC(=O)c1cccc(Cl)c1)C(=O)CCl (stereo not drawn) [Compound 35]
- inhibition at 20 µM [1]: 95%
- Percent inhibition of microtubule assembly (tubulin; 50 μM): 17.9%

Structure (SMILES): CCC(C)(NC(=O)c1ccccc1)C(=O)CCl (stereo not drawn) [Compound 36]
- inhibition at 50 µM [1]: 91%

Structure (SMILES): CCC(C)(NC(=O)c1cc(F)c(F)c(F)c1)C(=O)CCl (stereo not drawn) [Compound 37]
- inhibition at 50 µM [1]: 96%

Structure (SMILES): CC(C)C(C)(NC(=O)c1cc(Cl)cc(Cl)c1)C(=O)CCl (stereo not drawn) [Compound 38]
- inhibition at 50 µM [1]: 66%

Structure (SMILES): CC(C)(NC(=O)c1ccccc1)C(=O)CCl [Compound 39]
- inhibition at 50 µM [1]: 96%

Structure (SMILES): CC(C)(NC(=O)c1cc(Cl)cc(Cl)c1)C(=O)C(Cl)Cl [Compound 40]
- inhibition at 50 µM [1]: 92%

Structure (SMILES): CCC(C)(NC(=O)c1cc(Cl)cc(Br)c1)C(=O)C(Br)Br (stereo not drawn) [Compound 41]
- Percent inhibition of microtubule assembly (tubulin; 5 μM): 76.0%

Structure (SMILES): CC(C)(NC(=O)c1cc(Cl)nc(Cl)c1)C(=O)C(Br)Br [Compound 42]
- inhibition at 2 µM [1]: 98%

Structure (SMILES): CC(C)(NC(=O)c1cc(Cl)nc(Cl)c1)C(=O)CCl [Compound 43]
- inhibition at 4 µM [1]: 92%

Structure (SMILES): CCC(C)(NC(=O)c1cccnc1)C(=O)CCl (stereo not drawn) [Compound 45]
- inhibition at 50 µM [1]: 36%

Structure (SMILES): CCC(C)(NC(=O)c1ccc(Cl)nc1)C(=O)CCl (stereo not drawn) [Compound 46]
- inhibition at 50 µM [1]: 84%

Structure (SMILES): CC(C)(NC(=O)c1cc(Br)c(Br)s1)C(=O)CCl [Compound 47]
- inhibition at 20 µM [1]: 96%

Structure (SMILES): CCC(C)(NC(=O)c1ccc(C)s1)C(=O)CCl (stereo not drawn) [Compound 48]
- inhibition at 50 µM [1]: 97%

Structure (SMILES): CC(C)(NC(=O)c1cccs1)C(=O)C(Br)Br [Compound 49]
- inhibition at 2 µM [1]: 97%

Structure (SMILES): CCC(C)(NC(=O)c1ccc(Br)o1)C(=O)C(Br)Br (stereo not drawn) [Compound 50]
- inhibition at 10 µM [1]: 95%

Structure (SMILES): CC(C)(NC(=O)c1cccs1)C(=O)CCl [Compound 51]
- inhibition at 50 µM [1]: 95%

Structure (SMILES): CC(C)(NC(=O)c1cc(Cl)sc1Cl)C(=O)CCl [Compound 52]
- inhibition at 20 µM [1]: 89%

Structure (SMILES): CCC(C)(NC(=O)c1ccc2ncoc2c1)C(=O)CCl (stereo not drawn) [Compound 53]
- inhibition at 50 µM [1]: 95%

Structure (SMILES): CCC(C)(NC(=O)c1ccc2ocnc2c1)C(=O)CCl (stereo not drawn) [Compound 54]
- inhibition at 50 µM [1]: 36%

Structure (SMILES): CCC(C)(NC(=O)c1ccc2ncsc2c1)C(=O)CCl (stereo not drawn) [Compound 55]
- inhibition at 10 µM [1]: 97%

Structure (SMILES): CCC(C)(NC(=O)c1cc(Cl)c2ncoc2c1)C(=O)CCl (stereo not drawn) [Compound 56]
- inhibition at 10 µM [1]: 81%

Structure (SMILES): CCC(C)(NC(=O)c1cc(Cl)c2nc(C)oc2c1)C(=O)CCl (stereo not drawn) [Compound 57]
- inhibition at 10 µM [1]: 97%

Structure (SMILES): CC(C)(NC(=O)C1CCCCC1)C(=O)CCl [Compound 58]
- inhibition at 50 µM [1]: 77%

Structure (SMILES): CC(C)(NC(=O)C(Cl)(Cl)Cl)C(=O)CCl [Compound 59]
- inhibition at 4 µM [1]: 91%

Structure (SMILES): CC(C)(NC(=O)C(Cl)(Cl)Cl)C(=O)C(Br)Br [Compound 60]
- inhibition at 2 µM [1]: 98%
